Values of other authors in PMC10318822, “Phase 1 dose-escalation study to evaluate the safety, tolerability, pharmacokinetics, and anti-tumor activity of FCN-159 in adults with neurofibromatosis type 1-related unresectable plexiform neurofibromas” (BMC Medicine, 2023).
Read-outs that look alike come from different tables or passages of the source.

Assays:
NF1-related PN [1] = tested on: NF1-related PN; set-up: method as in PMID 33507822; conditions: adult patients with NF1 and progressive PN, 2 mg/m^2 twice daily, n = 8/19; cited from earlier work
patients [2] = tested on: patients; set-up: method as in PMID 20215549; conditions: cited from earlier work
[3] = cited from earlier work; for RP2D: twice daily
NF1-related PN [4] = conditions: cited from earlier work
patients [5] = conditions: in vivo; cited from earlier work

O=C(NOC[C@H](O)CO)c1ccc(F)c(F)c1Nc1ccc(I)cc1F [mirdametinib]
Response rate (NF1-related PN [1]): 42%
Blurred vision (patients [2]): 10.6%
Patients with rash (patients [2]): 78.8%
Visual disturbance (patients [2]): 13.6%
Terminal half-life [3]: 4.6 to 18.0 h
Terminal half-life, average [3]: 7.8 h
RP2D [3]: 2 mg/m^2

Cn1cnc2c(F)c(Nc3ccc(Br)cc3Cl)c(C(=O)NOCCO)cc21 [selumetinib]
Partial responses (PRs) (NF1-related PN [4]; interim results, phase II study in adults (NCT02407405), n = 16/23): 69%
Response rate (NF1-related PN [4]; pediatric patients with NF1-related PN): 40–70%
Partial responses (PRs) (NF1-related PN [4]; phase I study, children, 20–30 mg/m^2 twice daily, n = 17/24): 71%
Partial responses (PRs) (NF1-related PN [4]; phase II trial, n = 34/50): 68%
Patients reporting AEs of CTCAE grade 3 or above (patients [5]): up to 71.4%
Patients with acneiform dermatitis (patients [5]): 62.5%
Visual function AEs (patients [5]): 17.9%
Dose proportionality of plasma concentration increase [3]: less than dose-proportional
Terminal half-life [3]: 6.0 to 6.9 h
Time to Cmax ([3]; human, in vivo): 1.00 to 1.10 h
RP2D [3]: 25 mg/m^2
